Results from patent publication US11426441B2, “Composition comprising protein phosphatase 1 inhibitory peptide for treating vascular diseases” (BethphaGen Inc., priority 2016, dated 2022).
No end group written: not given here.

Tests used:
[1] = test system: rat aortic smooth muscle cells (RASMCs); assay: RASMC proliferation (PCNA immunostaining, EZ-CyTox cell viability assay); type: cell-based; details: synthetic conditions (10% FBS), 3 μM peptide
Protocol: (§1) The rat aortic smooth muscle cells (RASMCs) were isolated from the medial layer of the thoracic aorta derived from male Sprague-Dawley rats (body weight, 180-200 g) by an enzymatic reaction with collagenase (50 U/mL, Worthington) and pancreatic elastase (0.25 mg/mL, Sigma-Aldrich) for 4 hours at 37. The cells were collected and resuspended in DMEM containing 20% (v/v) fetal bovine serum. The resuspension was then plated on collagen I (Sigma-Aldrich)-coated glass coverslips and incubated at 37 in an atmosphere of 5% (v/v) CO2 and 95% (v/v) air. Human coronary smooth muscle cells (HCSMCs), pulmonary arterial endothelial cells (PAECs), and pulmonary arterial smooth muscle cells (PASMCs) were purchased from Lonza and cultured in EBM or SmBM (Lonza) supplemented with 0.5 mg/mL hEGF, […], 1 mg/mL hFGF, […] gentamicin/amphotericin-B, and 5% fetal bovine serum. All the cells were cultured at 37 in 5% (v/v) CO2 and 95% (v/v) air. RASMCs and HCSMCs were, respectively, plated at the densities of 1×10^4 cells/cm^2 and 1×10^5 cells/cm^2 for immunostaining and western blotting experiments. For RASMC and PASMC cell proliferation experiments, these cells were cultured in fetal bovine serum-free media for 3 days, and then proliferation was induced by serum addition.
Rat aortic smooth muscle cells (RASMCs) were fixed in 4% (w/v) paraformaldehyde at room temperature for 10 min, washed with PBS, and then transmitted with 0.1% (v/v) Triton X-100 in PBS for 40 min. After washing and blocking with 3% (w/v) BSA in PBS, the cells were incubated overnight at room temperature with antibodies against SERCA2a (1:250), SERCA2b (1:250), and PCNA (1:50). On the following day, the cells were washed with PBS and incubated with anti-rabbit and anti-mouse IgG conjugated to Alexa Fluor 488 and 594, respectively, for 1 hour at room temperature. The cells were treated with FluoroGuard antifade reagent (Bio-Rad, Hercules, Calif., USA), and the coverslips were examined under a fluorescent microscope. […]

SERCA2a = assay: A23187-induced SERCA2a degradation in HCSMCs; type: cell-based, human; details: HCSMCs pretreated 1 hour with 3 μM ψPLB-SE or 15 μM MDL28170, then 50 μM A23187 2 hours
Protocol: FIGS. 4a, 4b, 4c and 4d. (4a-4c) HCSMCs were pretreated with 3 μM ψPLB-SE and 15 μM MDL28170 for 1 hour, and then treated with 50 μM A23187 for 2 hours. (4a) Immunostaining was performed with antibodies against SERCA2a and SERCA2b (green). Nuclei were stained with Hoechst (blue). Representative merged images are shown. Scale bar, 50 μm. (4b) Western blot analysis was performed with cell extracts. Data are expressed as the means±SD (n=3-4; *, P<0.05). (4c) Baseline Ca^2+ concentration was measured by lonOptix calcium imaging system. (4d) RASMC were treated with ψPLB-SE or control peptide under the same conditions as described for FIG. 1B. The baseline Ca^2+ concentration was measured by lonOptix calcium imaging system (*, P<0.05).
as §1, with “For RASMC and PASMC cell proliferation experiments, these cells were cultured in fetal bovine serum-free media for 3 days, and then proliferation was induced by serum addition.” left out
Vascular smooth muscle cells (VSMCs) were homogenized in a minimal volume of 50 mM Tris-HCl, pH 7.4, supplemented with a broad-spectrum protease inhibitor cocktail (Calbiochem). […] The blots were scanned and quantified using LAS software.

PLB = PLB phosphorylation in RASMCs (western blotting); type: cell-based, rat
Protocol: FIG. 7. ψPLB-SE attenuates PLB dephosphorylation in VSMCs. The proteins samples shown in FIG. 2C were subjected to western blotting. Antibodies against PLB or phospho-PLB were used. Data are expressed as the means±SD (n=3-4; *, P<0.05).
Vascular smooth muscle cells (VSMCs) were homogenized in a minimal volume of 50 mM Tris-HCl, pH 7.4, supplemented with a broad-spectrum protease inhibitor cocktail (Calbiochem). The proteins were separated by SDS-PAGE and then transferred to polyvinylidene fluoride membranes (Schleicher & Schuell). After blocking with 5% (w/v) non-fat milk for 1 hour and washing with TBST, the membranes were incubated with antibodies against SERCA2a, SERCA2b (21st century biochemical), PCNA (abcam), GAPDH (Sigma-Aldrich), phospho-eNOS, eNOS, phospho-eIF2α, eIF2α (cell signaling), Vimentin, α-SMA, BMPR2 (Santa cruz), phospho-Akt, Akt (cell signaling), phospho-phospholamban (Merck), and Phospholamban (cell signaling). The membranes were then incubated with horseradish peroxidase-conjugated secondary antibodies (Jackson ImmunoResearch, West Grove, Pa., USA) and developed using a chemiluminescent substrate (Dogen). The blots were scanned and quantified using LAS software.

RAETIEMPQ (not fully specified) [ψPLB-SE, 9-mer PP1 decoy peptide mimicking phosphorylated PLB; conjugated via GGG linker to cell penetrating peptide dNP2 or TAT]
PCNA expression (active cell division) ([1]; RASMCs): completely blocked
increased proliferation of RASMCs (cell proliferation assay) ([1]; 24 hours): inhibited
A23187 (Ca^2+)-dependent degradation of SERCA2a (SERCA2a): completely inhibited
dephosphorylation of PLB (PLB): inhibited
